Laboratory results published in US20090170937A1, “Amino Acid Derivatives” (Proximagen Ltd., priority 2006, published 2009).
Non-standard residues stand in square brackets, D forms with d. Residues, ends and D or L forms follow the SMILES beside them. *: point of attachment. Dopa = N[C@@H](Cc1ccc(O)c(O)c1)C(=O)O; αMeF = C[C@](N)(Cc1ccccc1)C(=O)O; Aic = NC1(C(=O)O)Cc2ccccc2C1; Ac6c = NC1(C(=O)O)CCCCC1; Ac5c = NC1(C(=O)O)CCCC1; Ac4c = NC1(C(=O)O)CCC1; Ac3c = NC1(C(=O)O)CC1; Aib = CC(C)(N)C(=O)O; OcHex = C1CCC(O*)CC1; OBn = c1ccc(CO*)cc1; OiPr = CC(C)O*

System: 6-OHDA-lesioned rats
Experiment: Induction of rotational activity in 6-OHDA-lesioned rats
Type: in vivo, Male Wistar rats
Details: 63.4 μmole/kg, after benserazide 10 mg/kg, active = >10 turns per 10 minutes

SMILES	duration of activity (as % of L-DOPA duration of activity) (p.o.) [%]	duration of activity (as % of L-DOPA duration of activity) (i.p.) [%]
COC(=O)[C@H](Cc1ccc(OC(C)=O)c(OC(C)=O)c1)NC(=O)[C@@](C)(N)Cc1ccccc1.Cl [Example 22, (S)-1-[(S)-2-(3,4-Diacetoxyphenyl)-1-methoxycarbonylethylcarbamoyl]-1-methyl-2-phenylethylammonium Chloride]	19	
COC(=O)[C@H](Cc1ccc(O)c(O)c1)NC(=O)C1(N)Cc2ccccc2C1.Cl [Example 15, 2-[(S)-2-(3,4-Dihydroxyphenyl)-1-methoxycarbonylethylcarbamoyl]-indan-2-yl-ammonium Chloride] (H-[Aic]-[Dopa]-OMe)	31	
COC(=O)[C@H](Cc1ccc(O)c(O)c1)NC(=O)C(C)(C)N.Cl [Example 1, 1-[(S)-2-(3,4-Dihydroxyphenyl)-1-methoxycarbonylethylcarbamoyl]-1-methyl-ethylammonium Chloride] (H-[Aib]-[Dopa]-OMe)		63
C[C@](N)(Cc1ccccc1)C(=O)N[C@@H](Cc1ccc(O)c(O)c1)C(=O)O.Cl [Example 13, (S)-1-[(S)-1-Carboxy-2-(3,4-dihydroxyphenyl)-ethylcarbamoyl]-1-methyl-2-phenylethylammonium Chloride] (H-[αMeF]-[Dopa]-OH)	40	
COC(=O)[C@H](Cc1ccc(OC(C)=O)c(OC(C)=O)c1)NC(=O)C1(N)CCCCC1.Cl [Example 5, 1-[(S)-2-(3,4-Diacetoxyphenyl)-1-methoxycarbonylethylcarbamoyl]-cyclohexyl-ammonium Chloride]	42	
COC(=O)[C@H](Cc1ccc(O)c(O)c1)NC(=O)[C@@](C)(N)Cc1ccccc1.Cl [Example 12, (S)-1-[(S)-2-(3,4-Dihydroxyphenyl)-1-methoxycarbonyl-ethylcarbamoyl]-1-methyl-2-phenylethylammonium Chloride] (H-[αMeF]-[Dopa]-OMe)	52	
Cl.NC1(C(=O)N[C@@H](Cc2ccc(O)c(O)c2)C(=O)O)CC1 [Example 21, 1-[(S)-1-Carboxy-2-(3,4-dihydroxyphenyl)-ethylcarbamoyl]-cyclopropyl Ammonium Chloride] (H-[Ac3c]-[Dopa]-OH)	76	
COC(=O)[C@H](Cc1ccc(OC(C)=O)c(OC(C)=O)c1)NC(=O)C1(N)CCC1.Cl [Example 11, 1-[(S)-2-(3,4-Diacetoxyphenyl)-1-methoxycarbonylethylcarbamoyl]-cyclobutyl-ammonium Chloride]	67	
CC(C)(N)C(=O)N[C@@H](Cc1ccc(O)c(O)c1)C(=O)OC1CCCCC1.Cl [Example 18] (H-[Aib]-[Dopa]-OcHex)	70	
CC(C)(N)C(=O)N[C@@H](Cc1ccc(O)c(O)c1)C(=O)O.Cl [Example 6, 1-[(S)-1-Carboxy-2-(3,4-dihydroxyphenyl)-ethylcarbamoyl]-1-methylethyl-ammonium Chloride] (H-[Aib]-[Dopa]-OH)	57	
COC(=O)[C@H](Cc1ccc(O)c(O)c1)NC(=O)C1(N)CCCCC1.Cl [Example 4, 1-[(S)-2-(3,4-Dihydroxy-phenyl)-1-methoxycarbonyl-ethylcarbamoyl]-cyclohexyl-ammonium Chloride] (H-[Ac6c]-[Dopa]-OMe)	84	
COC(=O)[C@H](Cc1ccc(OC(C)=O)c(OC(C)=O)c1)NC(=O)C1(N)CCCC1.Cl [Example 8, 1-[(S)-2-(3,4-Diacetoxyphenyl)-1-methoxycarbonylethylcarbamoyl]-cyclopentyl-ammonium Chloride]	44	
COC(=O)[C@H](Cc1ccc(O)c(O)c1)NC(=O)C1(N)CCCC1.Cl [Example 7, 1-[(S)-2-(3,4-Dihydroxyphenyl)-1-methoxycarbonylethylcarbamoyl]-cyclopentyl-ammonium Chloride] (H-[Ac5c]-[Dopa]-OMe)	97	
COC(=O)[C@H](Cc1ccc(OC(=O)CC(C)(C)C)c(OC(=O)CC(C)(C)C)c1)NC(=O)C1(N)CCCCC1.Cl [Example 24, 1-{(S)-2-[3,4-Bis-(3,3-dimethylbutyryloxy)-phenyl]-1-methoxycarbonyl-ethylcarbamoyl}-cyclohexylammonium Chloride]	36	
COC(=O)[C@H](Cc1ccc(OC(C)=O)c(OC(C)=O)c1)NC(=O)C(C)(C)N.Cl [Example 2, 1-[(S)-2-(3,4-Diacetoxyphenyl)-1-methoxycarbonylethylcarbamoyl]-1-methyl-ethylammonium Chloride]	73	
CC(=O)Oc1ccc(C[C@H](NC(=O)C(C)(C)N)C(=O)O)cc1OC(C)=O.Cl [Example 9, 1-[(S)-1-Carboxy-2-(3,4-diacetoxyphenyl)-ethylcarbamoyl]-1-methylethyl-ammonium Chloride]	45	
CC(C)OC(=O)[C@H](Cc1ccc(O)c(O)c1)NC(=O)C(C)(C)N.Cl [Example 17, 1-[(S)-2-(3,4-Dihydroxyphenyl)-1-isopropoxycarbonylethylcarbamoyl]-1-methyl-ethylammonium Chloride] (H-[Aib]-[Dopa]-OiPr)	72	
COC(=O)[C@H](Cc1ccc(O)c(O)c1)NC(=O)C1(N)CCC1.Cl [Example 10] (H-[Ac4c]-[Dopa]-OMe)	73	
Cl.NC1(C(=O)N[C@@H](Cc2ccc(O)c(O)c2)C(=O)O)CCC1 [Example 20, 1-[(S)-1-Carboxy-2-(3,4-dihydroxyphenyl)-ethylcarbamoyl]-cyclobutyl-ammonium Chloride] (H-[Ac4c]-[Dopa]-OH)	37	
CC(C)CCOC(=O)[C@H](Cc1ccc(O)c(O)c1)NC(=O)C(C)(C)N.Cl [Example 23, 1-[(S)-2-(3,4-Dihydroxyphenyl)-1-(3-methylbutoxycarbonyl)-ethylcarbamoyl]-1-methylethylammonium Chloride]	49	
Cl.NC1(C(=O)N[C@@H](Cc2ccc(O)c(O)c2)C(=O)O)CCCC1 [Example 14, 1-[(S)-1-Carboxy-2-(3,4-dihydroxyphenyl)-ethylcarbamoyl]-cyclopentyl-ammonium Chloride] (H-[Ac5c]-[Dopa]-OH)	62	
COC(=O)[C@H](Cc1ccc(OC(C)=O)c(OC(C)=O)c1)NC(=O)C1(N)Cc2ccccc2C1.Cl [Example 16, 2-[(S)-2-(3,4-Diacetoxyphenyl)-1-methoxycarbonylethylcarbamoyl]-indan-2-yl-ammonium Chloride]	21	
CC(C)(N)C(=O)N[C@@H](Cc1ccc(O)c(O)c1)C(=O)OCc1ccccc1.Cl [Example 3, 1-[(S)-1-Benzyloxycarbonyl-2-(3,4-dihydroxyphenyl)-ethylcarbamoyl]-1-methyl-ethylammonium Chloride] (H-[Aib]-[Dopa]-OBn)	38	
